In patent publication US8357717B2, “Spiro group-containing amide compounds having bradykinin 1 receptor (B1R) activity” (Gruenenthal GmbH, priority 2009, dated 2013) one finds inhibition data, which are given here for eleven molecules.

For the assay, the target named is T1, B1R receptor of the rat (rB1R) (Rattus norvegicus, UniProt P97583).
T1 construct: expressed in transfected cells; host or cells: CHO K1 cells, stably transfected
T1 sequence (P97583 1-337): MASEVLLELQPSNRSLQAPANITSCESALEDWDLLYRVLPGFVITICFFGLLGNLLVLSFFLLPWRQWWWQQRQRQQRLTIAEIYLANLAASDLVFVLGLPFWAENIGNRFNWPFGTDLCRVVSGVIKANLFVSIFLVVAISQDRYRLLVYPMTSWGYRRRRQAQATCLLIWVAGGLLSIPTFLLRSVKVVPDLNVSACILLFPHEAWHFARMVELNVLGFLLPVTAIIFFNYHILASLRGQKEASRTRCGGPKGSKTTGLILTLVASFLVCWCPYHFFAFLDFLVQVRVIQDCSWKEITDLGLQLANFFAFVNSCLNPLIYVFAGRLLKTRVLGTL
In words: FLIPR Ca2+ functional study on bradykinin receptor 1, rB1R cells (CHO K1). It counts as cell-based. The conditions noted are these: 10 μM test substance; CHO K1 cells with rat B1R; agonist Des-Arg9-bradykinin at EC80; read-out: B1R antagonism, rat [10 μM] % inhibition. On the procedure: The agonistic or antagonistic activity of substances can be quantified on the bradykinin receptor 1 (B1R) of the species human and rat using ectopically expressing cell lines (CHO K1 cells) and with the aid of a Ca^2+-sensitive dye (Fluo-4) using a fluorescent imaging plate reader (FLIPR). The indication in % activation is based on the Ca^2+ signal after addition of Lys-Des-Arg^9-bradykinin (0.5 nM) or Des-Arg^9-bradykinin (100 nM). Antagonists lead to suppression of the Ca^2+ influx after the addition of the agonist. % Inhibition compared with the maximum achievable inhibition is indicated.
The agonistic or antagonistic activity of substances can be determined on the bradykinin receptor 1 (B1R) of the species human and rat using the following assay. According to this assay, the Ca^2+ influx through the channel is quantified with the aid of a Ca^2+-sensitive dye (Fluo-4 type, Molecular Probes Europe BV, Leiden, Netherlands) using a Fluorescent Imaging Plate Reader (FLIPR, Molecular Devices, Sunnyvale, USA).
Chinese hamster ovary cells (CHO K1 cells) which have been stably transfected with the human B1R gene (hB1R cells) or with the B1R gene of the rat (rB1R cells) are used. For functional studies, the cells are plated out on black 96-well plates having a clear base (BD Biosciences, Heidelberg, Germany or Greiner, Frickenhausen, Germany) in a density of 20,000-35,000 cells/well. The cells are left overnight at 37° C. and with 5% CO2 in culture medium (hB1R cells: Nutrient Mixture Ham's F12, Gibco Invitrogen GmbH, Karlsruhe, Germany or DMEM, Sigma-Aldrich, Taufkirchen, Germany; rB1R cells: D-MEM/F12, Gibco Invitrogen GmbH, Karlsruhe, Germany), with 10 vol. % FBS (fetal bovine serum, Gibco Invitrogen GmbH, Karlsruhe, Germany or PAN Biotech GmbH, Aidenbach, Germany). On the following day, the cells are loaded for 60 minutes at 37° C. with 2.13 μM Fluo-4 (Molecular Probes Europe BV, Leiden, Netherlands) in HBSS buffer (Hank's buffered saline solution, Gibco Invitrogen GmbH, Karlsruhe, Germany) […] (Sigma-Aldrich, Taufkirchen, Germany) and 10 mM HEPES (Sigma-Aldrich, Taufkirchen, Germany). The plates are then washed twice with HBSS buffer, and HBSS buffer additionally containing 0.1% BSA (bovine serum albumin; Sigma-Aldrich, Taufkirchen, Germany), 5.6 mM glucose and 0.05% gelatin (Merck KGaA, Darmstadt, Germany) is added to the plates. After incubation for a further 20 minutes at room temperature, the plates are inserted into the FLIPR for Ca^2+ measurement. Alternatively, washing is carried out with buffer A (15 mM HEPES, 80 mM NaCl, 5 mM KCl, 1.2 mM CaCl2, 0.7 mM MgSO4, 2 g/l glucose, 2.5 mM probenecid) followed by loading with buffer A with added 2.5 μM Fluo-4 and 0.025% Pluronic F127 (Sigma-Aldrich, Taufkirchen, Germany). The cells are then washed twice with buffer A and incubated for 30 minutes at room temperature with buffer A additionally containing 0.05% BSA and 0.05% gelatin and are then inserted into the FLIPR for Ca^2+ measurement. The Ca^2+-dependent fluorescence is measured before and after the addition of substances (λex=488 nm, λem=540 nm). Quantification is carried out by measuring the highest fluorescence intensity (FC, fluorescence counts) over time.
The FLIPR protocol consists of two substance additions. Test substances (10 μM) are first pipetted onto the cells and the Ca^2+ influx is compared with the control (hB1R: Lys-Des-Arg^9-bradykinin >=50 nM; rB1R: Des-Arg^9-bradykinin 10 μM). This gives the activation in %, based on the Ca^2+ signal after addition of Lys-Des-Arg^9-bradykinin (>=50 nM) or Des-Arg^9-bradykinin (10 μM). After 10-20 minutes' incubation, Lys-Des-Arg^9-bradykinin (hB1R) or Des-Arg^9-bradykinin (rB1R) is applied in the concentration of the EC80, and the influx of Ca^2+ is likewise determined. Antagonists lead to suppression of the Ca^2+ influx. The % inhibition compared with the maximum achievable inhibition is calculated. […]

Regarding `COc1cc(C)c(S(=O)(=O)N2CCCc3ccc(C(=O)N4CCC5(CCN(Cc6ccccc6)C5)C4)cc32)c(C)c1` (centres unmarked) [G_CC-027, (7-Benzyl-2,7-diazaspiro[4.4]nonan-2-yl)(1-(4-methoxy-2,6-dimethylphenylsulfonyl)-1,2,3,4-tetrahydroquinolin-7-yl)methanone], the inhibition at 10 µM stood at 58%.
The figure for `COc1cc(C)c(S(=O)(=O)N2CCCc3ccc(C(=O)N4CCC5(CC4)C(=O)N(C)CC5c4ccc(F)cc4)cc32)c(C)c1` (centres unmarked) [G_CC-025, 4-(4-Fluorophenyl)-8-(1-(4-methoxy-2,6-dimethylphenylsulfonyl)-1,2,3,4-tetrahydroquinoline-7-carbonyl)-2-methyl-2,8-diazaspiro[4.5]decan-1-one] is 51%.
The value for `COc1cc(C)c(S(=O)(=O)N2CCc3ccc(C(=O)N4CCC5(CCN(Cc6ccccc6)C5)C4)cc3C2)c(C)c1` (centres unmarked) [G_CC-041, (7-Benzyl-2,7-diazaspiro[4.4]nonan-2-yl)(2-(4-methoxy-2,6-dimethylphenylsulfonyl)-1,2,3,4-tetrahydroisoquinolin-7-yl)methanone] was 64%.
The value for `COc1cc(C)c(S(=O)(=O)N2CCCc3ccc(CC(=O)N4CCC5(CC4)CCN(Cc4ccccc4)C5=O)cc32)c(C)c1` [G_CC-053, 2-Benzyl-8-(2-(1-(4-methoxy-2,6-dimethylphenylsulfonyl)-1,2,3,4-tetrahydroquinolin-7-yl)acetyl)-2,8-diazaspiro[4.5]decan-1-one] was 84%.
In the case of `COc1cc(C)c(S(=O)(=O)N2CCc3ccc(C(=O)N4CCC5(CC4)C(=O)NCN5c4ccccc4)cc3C2)c(C)c1` [G_CC-043, 8-(2-(4-Methoxy-2,6-dimethylphenylsulfonyl)-1,2,3,4-tetrahydroisoquinoline-7-carbonyl)-1-phenyl-1,3,8-triazaspiro[4.5]decan-4-one], the inhibition at 10 µM amounted to 74%.
With `O=C(c1ccc2c(c1)CN(C(=O)c1ccccc1Cl)C2)N1CCC2(CC1)CCN(Cc1ccc(F)cc1)C2=O` [G_CC-018, 8-(2-(2-Chlorobenzoyl)isoindoline-5-carbonyl)-2-(4-fluorobenzyl)-2,8-diazaspiro[4.5]decan-1-one], the inhibition at 10 µM was 51%.
The figure for `COc1cc(C)c(S(=O)(=O)N2CCCc3ccc(CC(=O)N4CCC5(CCN(Cc6ccccc6)C5)C4)cc32)c(C)c1` (centres unmarked) [G_CC-054, 1-(7-Benzyl-2,7-diazaspiro[4.4]nonan-2-yl)-2-(1-(4-methoxy-2,6-dimethylphenylsulfonyl)-1,2,3,4-tetrahydroquinolin-7-yl)ethanone] is 71%; for `COc1cc(C)c(S(=O)(=O)N2CCc3ccc(C(=O)N4CCC5(CC4)CCN(Cc4ccc(F)cc4)C5=O)cc3C2)c(C)c1` [G_CC-039, 2-(4-Fluorobenzyl)-8-(2-(4-methoxy-2,6-dimethylphenylsulfonyl)-1,2,3,4-tetrahydroisoquinoline-7-carbonyl)-2,8-diazaspiro[4.5]decan-1-one] it is 71%.
The figure for `COc1cc(C)c(S(=O)(=O)N2CCCc3ccc(C(=O)N4CCC5(CC4)CCN(Cc4ccccc4)C5=O)cc32)c(C)c1` [G_CC-026, 2-Benzyl-8-(1-(4-methoxy-2,6-dimethylphenylsulfonyl)-1,2,3,4-tetrahydroquinoline-7-carbonyl)-2,8-diazaspiro[4.5]decan-1-one] is 58%.
With `COc1cc(C)c(S(=O)(=O)N2CCc3ccc(C(=O)N4CCC5(CC4)CCN(Cc4ccc(F)cc4)C5=O)cc32)c(C)c1` [G_CC-006, 2-(4-Fluorobenzyl)-8-(1-(4-methoxy-2,6-dimethylphenylsulfonyl)indoline-6-carbonyl)-2,8-diazaspiro[4.5]decan-1-one], the inhibition at 10 µM is 71%.
The value for `COc1cc(C)c(S(=O)(=O)N2CCc3ccc(C(=O)N4CCC5(CC4)CCN(c4ccncc4)CC5)cc32)c(C)c1` [G_CC-008, (1-(4-Methoxy-2,6-dimethylphenylsulfonyl)indolin-6-yl)(9-(pyridin-4-yl)-3,9-diazaspiro[5.5]undecan-3-yl)methanone] was 100%.
